In article PMC3433420 (PLoS ONE, 2012) one finds Kd data, which are given here for 7 compounds.

Holding throughout (experiment): FP saturation binding assay
What all share (settings): high-confidence ErbB interactions

Assay [1] deals with T1, PTK6 SH2 domain (Homo sapiens, UniProt Q13882).
T1 construct: from the PTK6 SH2 domain; 6X His; thioredoxin; made in house; host or cells: E. coli BL21(DE3)pLysS
The method in brief:
(§1)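 KD values come from least-squares fits of fluorescence polarization (ex 530, em 555 nm), corrected for thioredoxin nonspecific binding and plate baseline, with outliers pruned. Fixed 10 nM labeled peptide met a 0.002–10 µM protein series for 20 min at room temperature in HEPES/KCl/Tween/DTT buffer, pH 7.8.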

Assay [2] has as its target T2, RASA1-NC tandem SH2 domains (Homo sapiens, UniProt P20936).
T2 construct: the tandem protein was included in our analysis with all internal amino acids linking the domains; 6X His; thioredoxin; made in house; host or cells: E. coli BL21(DE3)pLysS
T2 sequence (P20936 181-441 limits assumed): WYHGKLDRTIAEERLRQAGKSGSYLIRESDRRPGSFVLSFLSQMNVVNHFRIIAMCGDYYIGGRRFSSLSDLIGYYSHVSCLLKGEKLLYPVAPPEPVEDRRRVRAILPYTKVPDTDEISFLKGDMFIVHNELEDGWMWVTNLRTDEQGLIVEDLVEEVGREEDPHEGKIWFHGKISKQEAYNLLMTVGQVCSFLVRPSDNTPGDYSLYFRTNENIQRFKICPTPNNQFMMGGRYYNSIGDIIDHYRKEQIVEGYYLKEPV
In a few lines: as §1

The target of assay [3] is T3, PIK3R3-NC tandem SH2 domains (Homo sapiens, UniProt Q92569).
T3 construct: the tandem protein was included in our analysis with all internal amino acids linking the domains; 6X His; thioredoxin; made in house; host or cells: E. coli BL21(DE3)pLysS
The method in brief: as §1

Assay [4] concerns the target T4, PIK3R3-N SH2 domain (Homo sapiens, UniProt Q92569).
T4 construct: 6X His; thioredoxin; made in house; host or cells: E. coli BL21(DE3)pLysS
The method in brief:
as §1

The target of assay [5] is T5, YES1 SH2 domain (Homo sapiens, UniProt P07947).
T5 construct: 6X His; thioredoxin; made in house; host or cells: BL21(DE3)pLysS E. coli
T5 sequence (P07947 158-255 limits assumed): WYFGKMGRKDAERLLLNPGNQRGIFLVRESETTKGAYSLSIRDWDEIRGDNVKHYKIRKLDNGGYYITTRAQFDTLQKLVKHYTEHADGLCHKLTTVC
The method in brief:
as §1

The target of assay [6] is T6, LCK SH2 domain (Homo sapiens, UniProt P06239).
T6 construct: 93 SH2 and 2 PTB domain-containing constructs; 6X His; thioredoxin; made in house; host or cells: E. coli BL21(DE3)pLysS
T6 sequence (P06239 127-224 limits assumed): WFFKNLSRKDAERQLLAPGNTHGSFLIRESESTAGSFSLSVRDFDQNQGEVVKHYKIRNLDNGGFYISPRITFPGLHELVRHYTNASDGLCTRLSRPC
The method in brief: as §1

The target of assay [7] is T7, LYN SH2 domain (Homo sapiens, UniProt P07948).
T7 construct: 93 SH2 and 2 PTB domain-containing constructs; 6X His; thioredoxin; made in house; host or cells: E. coli BL21(DE3)pLysS
T7 sequence (P07948 129-226 limits assumed): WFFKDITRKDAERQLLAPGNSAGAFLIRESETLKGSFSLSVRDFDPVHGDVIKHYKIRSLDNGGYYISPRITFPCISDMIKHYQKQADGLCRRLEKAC
The method in brief: as §1

Where [8] appears, read: Protein PIK3R3-NC, FP saturation binding, mean over replicate hits.
Where [9] appears, read: Protein PIK3R3-N, FP saturation binding, mean over replicate hits.
The mark [10] stands for this setting: Protein YES1, FP saturation binding, mean over replicate hits.
[11] abbreviates: protein LCK, FP, mean of replicate hits.
[12] abbreviates: protein YES1, FP, mean of replicate hits.

Molecules are shown by their SMILES. Residues, ends and D or L forms follow the SMILES beside them.

T1 sequence (Q13882 78-170 limits assumed): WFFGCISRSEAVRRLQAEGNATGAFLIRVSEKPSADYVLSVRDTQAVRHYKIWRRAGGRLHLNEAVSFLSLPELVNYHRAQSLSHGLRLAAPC

On to `CC(C)C[C@H](NC(=O)[C@H](Cc1ccc(OP(=O)(O)O)cc1)NC(=O)[C@H](CCC(=O)O)NC(=O)[C@H](CCC(=O)O)NC(=O)[C@H](C)NC(=O)[C@@H](N)CC(=O)O)C(=O)N[C@H](C(=O)N1CCC[C@H]1C(=O)N[C@@H](CCC(N)=O)C(=O)N[C@@H](CCC(N)=O)C(=O)NCC(=O)N[C@@H](Cc1ccccc1)C(=O)N[C@@H](CC(=O)O)C(=O)O)C(C)C` [ErbB2 1023 13-mer] (HELM PEPTIDE1{D.A.E.E.[O=C([C@H](Cc1ccc(OP(=O)(O)O)cc1)N[*:1])[*:2]].L.V.P.Q.Q.G.F.D}$$$$V2.0), for which the Kd in assay [1] (Protein PTK6, FP saturation binding, mean over replicate hits) stood at 3.76 µM; in assay [2] (Protein RASA1-NC, FP saturation binding, mean over replicate hits), 6.65 µM; in assay [3] (setting [8]), 10.7 µM; in assay [4] (setting [9]), 5.27 µM.

As for `CC(C)[C@H](NC(=O)[C@H](CC(=O)O)NC(=O)[C@@H]1CCCN1C(=O)[C@H](CCC(N)=O)NC(=O)[C@H](CC(N)=O)NC(=O)[C@@H](NC(=O)[C@H](Cc1ccc(OP(=O)(O)O)cc1)NC(=O)[C@H](CCC(=O)O)NC(=O)[C@@H]1CCCN1C(=O)[C@H](CCC(N)=O)NC(=O)[C@@H]1CCCN1)C(C)C)C(=O)N[C@@H](CCCNC(=N)N)C(=O)N[C@@H](CC(=O)O)C(=O)O` [ErbB2 1139 13-mer] (HELM PEPTIDE1{P.Q.P.E.[O=C([C@H](Cc1ccc(OP(=O)(O)O)cc1)N[*:1])[*:2]].V.N.Q.P.D.V.R.D}$$$$V2.0), the Kd is 5.18 µM in assay [3] (setting [8]), 9.05 µM in assay [4] (setting [9]) and 13.4 µM in assay [5] (setting [10]).

`CC(C)C[C@H](NC(=O)[C@H](CC(N)=O)NC(=O)[C@@H](N)CC(=O)O)C(=O)N[C@@H](Cc1ccc(O)cc1)C(=O)N[C@@H](Cc1ccc(OP(=O)(O)O)cc1)C(=O)N[C@@H](Cc1c[nH]c2ccccc12)C(=O)N[C@@H](CC(=O)O)C(=O)N[C@@H](CCC(N)=O)C(=O)N[C@@H](CC(=O)O)C(=O)N1CCC[C@H]1C(=O)N1CCC[C@H]1C(=O)N[C@@H](CCC(=O)O)C(=O)N[C@@H](CC(=O)O)C(=O)O` [ErbB2 1222 13-mer] (HELM PEPTIDE1{D.N.L.Y.[O=C([C@H](Cc1ccc(OP(=O)(O)O)cc1)N[*:1])[*:2]].W.D.Q.D.P.P.E.D}$$$$V2.0): the Kd in assay [6] (Protein LCK, FP saturation binding, mean over replicate hits) was 7.7 µM; in assay [7] (Protein LYN, FP saturation binding, mean over replicate hits), 4.18 µM; in assay [3] (setting [8]) it was 10.3 µM; in assay [4] (setting [9]), 9.63 µM; in assay [5] (setting [10]), 1.52 µM.

On to `CSCC[C@H](NC(=O)[C@H](Cc1ccc(OP(=O)(O)O)cc1)NC(=O)[C@H](CCC(=O)O)NC(=O)[C@H](Cc1ccc(O)cc1)NC(=O)CNC(=O)[C@@H](N)CC(C)C)C(=O)N[C@@H](CC(=O)O)C(=O)N[C@H](C(=O)NCC(=O)N[C@@H](CO)C(=O)N[C@@H](CC(=O)O)C(=O)N[C@@H](CC(C)C)C(=O)N[C@@H](CC(=O)O)C(=O)O)C(C)C` [ErbB3 1224 13-mer] (HELM PEPTIDE1{L.G.Y.E.[O=C([C@H](Cc1ccc(OP(=O)(O)O)cc1)N[*:1])[*:2]].M.D.V.G.S.D.L.D}$$$$V2.0), for which the Kd was found to be 3.02 µM in assay [6] (setting [11]); 6.58 µM in assay [1] (protein PTK6, FP, mean of replicate hits); 6.86 µM in assay [7] (protein LYN, FP, mean of replicate hits); 2.52 µM in assay [5] (setting [12]).

On to `CSCC[C@H](NC(=O)[C@H](CCC(=O)O)NC(=O)[C@H](CCC(=O)O)NC(=O)[C@H](Cc1ccc(OP(=O)(O)O)cc1)NC(=O)CNC(=O)[C@H](CCC(N)=O)NC(=O)[C@H](CCC(=O)O)NC(=O)[C@@H](N)CO)C(=O)N[C@@H](CCCNC(=N)N)C(=O)N[C@@H](C)C(=O)N[C@@H](Cc1ccccc1)C(=O)N[C@@H](CCC(N)=O)C(=O)N[C@@H](CC(=O)O)C(=O)O` [ErbB3 1289 13-mer] (HELM PEPTIDE1{S.E.Q.G.[O=C([C@H](Cc1ccc(OP(=O)(O)O)cc1)N[*:1])[*:2]].E.E.M.R.A.F.Q.D}$$$$V2.0), for which the Kd in assay [6] (setting [11]) stood at 2.23 µM; in assay [4] (protein PIK3R3-N, FP, mean of replicate hits), 0.3 µM; in assay [5] (setting [12]) it was 5.91 µM.

With `CSCC[C@H](NC(=O)[C@H](Cc1ccc(OP(=O)(O)O)cc1)NC(=O)CNC(=O)[C@H](CCC(=O)O)NC(=O)[C@H](CCC(=O)O)NC(=O)[C@H](CC(=O)O)NC(=O)[C@H](CC(C)C)NC(=O)[C@H](CCC(=O)O)NC(=O)CNC(=O)[C@H](CCCNC(=N)N)NC(=O)[C@@H]1CCCN1)C(=O)N[C@H](C(=O)N1CCC[C@H]1C(=O)N[C@@H](CCSC)C(=O)N[C@@H](CCCNC(=N)N)C(=O)N[C@@H](CC(=O)O)C(=O)N[C@@H](CCCCN)C(=O)N[C@@H](CC(=O)O)C(=O)O)[C@@H](C)O` [ErbB4 1150 18-mer] (HELM PEPTIDE1{P.R.G.E.L.D.E.E.G.[O=C([C@H](Cc1ccc(OP(=O)(O)O)cc1)N[*:1])[*:2]].M.T.P.M.R.D.K.D}$$$$V2.0), the Kd in assay [2] (protein RASA1-NC, FP, mean of replicate hits) amounted to 0.41 µM; in assay [3] (protein PIK3R3-NC, FP, mean of replicate hits), 2.5 µM.

For `CC(C)C[C@H](NC(=O)[C@H](Cc1ccc(OP(=O)(O)O)cc1)NC(=O)[C@H](CC(C)C)NC(=O)[C@@H]1CCCN1C(=O)[C@H](CCC(=O)O)NC(=O)[C@H](CC(N)=O)NC(=O)[C@@H](NC(=O)[C@H](Cc1ccc(O)cc1)NC(=O)[C@H](CCC(=O)O)NC(=O)[C@H](CC(=O)O)NC(=O)[C@@H](N)CCC(=O)O)C(C)C)C(=O)N[C@@H](CC(N)=O)C(=O)N[C@H](C(=O)N[C@@H](Cc1ccccc1)C(=O)N[C@@H](C)C(=O)N[C@@H](CC(N)=O)C(=O)N[C@H](C(=O)N[C@@H](CC(=O)O)C(=O)O)[C@@H](C)O)[C@@H](C)O` [ErbB4 1208 18-mer] (HELM PEPTIDE1{E.D.E.Y.V.N.E.P.L.[O=C([C@H](Cc1ccc(OP(=O)(O)O)cc1)N[*:1])[*:2]].L.N.T.F.A.N.T.D}$$$$V2.0), the Kd in assay [1] (protein PTK6, mean of replicate hits) is 15.5 µM; in assay [2] (protein RASA1-NC, mean of replicate hits) it was 6.39 µM; in assay [7] (protein LYN, mean of replicate hits) it was 5.15 µM; in assay [3] (protein PIK3R3-NC, mean of replicate hits), 3.02 µM.
